Measured values reported in US10988478B1, “Pyrazolo[1,5a]pyrimidine derivatives as IRAK4 modulators” (Genentech, Inc., priority 2015, dated 2021).

The compounds below were run against human IRAK4 (Homo sapiens (Human), UniProt Q9NWZ3) (assay: IRAK4 kinase inhibition, Transcreener fluorescence polarization ADP assay). Details: recombinant full-length His6-IRAK4; 125 uM ATP; 90 min; Ki computed using ATP Km 642 uM.
human IRAK4, sequence (Q9NWZ3 whole entry): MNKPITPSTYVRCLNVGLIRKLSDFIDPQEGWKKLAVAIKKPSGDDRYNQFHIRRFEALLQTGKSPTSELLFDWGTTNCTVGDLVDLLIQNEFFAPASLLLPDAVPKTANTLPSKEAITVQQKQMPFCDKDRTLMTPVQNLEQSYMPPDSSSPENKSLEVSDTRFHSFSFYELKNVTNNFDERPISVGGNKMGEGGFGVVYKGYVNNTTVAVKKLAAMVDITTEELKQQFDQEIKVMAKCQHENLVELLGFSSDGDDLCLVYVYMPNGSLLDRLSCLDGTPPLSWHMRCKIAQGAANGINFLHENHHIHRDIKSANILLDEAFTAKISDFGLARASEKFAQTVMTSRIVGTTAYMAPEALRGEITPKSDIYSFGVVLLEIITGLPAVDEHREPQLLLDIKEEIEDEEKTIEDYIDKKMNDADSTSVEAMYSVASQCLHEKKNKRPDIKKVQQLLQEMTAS
Format: biochemical
Experimental: Compounds were assayed for inhibition of human IRAK4 and IRAK1 catalytic activity using recombinant enzyme produced from insect cells. Full-length IRAK4 protein, carrying an N-terminal His6-Tag, was obtained from Life Technologies (Carlsbad, Calif., USA). The IRAK1 construct was produced internally and was comprised of IRAK1 residues Arg194 to Ser712, preceded by an NH2-terminal His6 tag and the coding sequence for glutathione-S-transferase.
With `C[C@@H](C(N)=O)N1CCN(c2cc3c(cc2NC(=O)c2cnn4cccnc24)CC(C)(C)O3)CC1` [Example 473, N-[6-[4-[(1S)-2-amino-1-methyl-2-oxo-ethyl]piperazin-1-yl]-2,2-dimethyl-3H-benzofuran-5-yl]pyrazolo[1,5-a]pyrimidine-3-carboxamide] the Ki was 5 nM.
`C[C@H](O)CN1CCN(c2cc3c(cc2NC(=O)c2cnn4cccnc24)CC(C)(C)O3)CC1` [Example 474, (S)-N-(6-(4-(2-hydroxypropyl)piperazin-1-yl)-2,2-dimethyl-2,3-dihydrobenzofuran-5-yl)pyrazolo[1,5-a]pyrimidine-3-carboxamide] gave a Ki of 20 nM.
Compound `C[C@@H](O)CN1CCN(c2cc3c(cc2NC(=O)c2cnn4cccnc24)CC(C)(C)O3)CC1` [Example 475, (R)-N-(6-(4-(2-hydroxypropyl)piperazin-1-yl)-2,2-dimethyl-2,3-dihydrobenzofuran-5-yl)pyrazolo[1,5-a]pyrimidine-3-carboxamide] has a Ki of 9.5 nM.
Compound `CC(C)(N)CN1CCN(c2cc3c(cc2NC(=O)c2cnn4cccnc24)CC(C)(C)O3)CC1` [Example 476, N-(6-(4-(2-amino-2-methylpropyl)piperazin-1-yl)-2,2-dimethyl-2,3-dihydrobenzofuran-5-yl)pyrazolo[1,5-a]pyrimidine-3-carboxamide] has a Ki of 33 nM.
`C[C@@H](N)CN1CCN(c2cc3c(cc2NC(=O)c2cnn4cccnc24)CC(C)(C)O3)CC1` [Example 477, N-[6-[4-[(2R)-2-Aminopropyl]piperazin-1-yl]-2,2-dimethyl-3H-benzofuran-5-yl]pyrazolo[1,5-a]pyrimidine-3-carboxamide] gave a Ki of 35 nM.
`C[C@H](N)CN1CCN(c2cc3c(cc2NC(=O)c2cnn4cccnc24)CC(C)(C)O3)CC1` [Example 478, N-[6-[4-[(2S)-2-Aminopropyl]piperazin-1-yl]-2,2-dimethyl-3H-benzofuran-5-yl]pyrazolo[1,5-a]pyrimidine-3-carboxamide] showed a Ki of 6 nM.
`Cc1oc(=O)[nH]c1CN1CCN(c2cc3c(cc2NC(=O)c2cnn4cccnc24)CC(C)(C)O3)CC1` [Example 479, N-[2,2-Dimethyl-6-[4-[(5-methyl-2-oxo-3H-oxazol-4-yl)methyl]piperazin-1-yl]-3H-benzofuran-5-yl]pyrazolo[1,5-a]pyrimidine-3-carboxamide] gave a Ki of 6.7 nM.
`CC(C)N1Cc2cc(NC(=O)c3cnn4ccc(C(F)F)nc34)c(N3CCOCC3)cc2C1=O` [Example 484, 5-(Difluoromethyl)-N-(2-isopropyl-6-morpholino-1-oxo-isoindolin-5-yl)pyrazolo[1,5-a]pyrimidine-3-carboxamide] gave a Ki of 350 nM.
`CC(C)N1Cc2cc(NC(=O)c3cnn4cc(C#N)cnc34)c(N3CCOCC3)cc2C1=O` [Example 485, 6-cyano-N-(2-isopropyl-6-morpholino-1-oxo-isoindolin-5-yl)pyrazolo[1,5-a]pyrimidine-3-carboxamide] gave a Ki of 66 nM.
`CC(C)N1Cc2cc(NC(=O)c3cnn4cc(C(N)=O)cnc34)c(N3CCOCC3)cc2C1=O` [Example 486, N3-(2-isopropyl-6-morpholino-1-oxo-isoindolin-5-yl)pyrazolo[1,5-a]pyrimidine-3,6-dicarboxamide] was tested, and the Ki was 37 nM.
Compound `CC(C)(O)[C@H](F)CN1Cc2cc(NC(=O)c3cnn4cccnc34)c(C3CC3)cc2C1=O` [Example 487, N-[6-Cyclopropyl-2-[(2R)-2-fluoro-3-hydroxy-3-methyl-butyl]-1-oxo-isoindolin-5-yl]pyrazolo[1,5-a]pyrimidine-3-carboxamide] has a Ki of 0.61 nM.
With `Cn1cnc(-c2cc3c(cc2NC(=O)c2cnn4cccnc24)CC(C)(C)O3)c1` [Example 488, N-[2,2-Dimethyl-6-(1-methylimidazol-4-yl)-3H-benzofuran-5-yl]pyrazolo[1,5-a]pyrimidine-3-carboxamide] the Ki was 610 nM.
`Cn1ccc(-c2cc3c(cc2NC(=O)c2cnn4cccnc24)CC(C)(C)O3)n1` [Example 489, N-(2,2-dimethyl-6-(1-methyl-1H-pyrazol-3-yl)-2,3-dihydrobenzofuran-5-yl)pyrazolo[1,5-a]pyrimidine-3-carboxamide] showed a Ki of 240 nM.
Work on `CC1(C)Cc2cc(NC(=O)c3cnn4cc(C5CNC5)cnc34)c(N3CCOCC3)cc2O1` [Example 490, 6-(Azetidin-3-yl)-N-(2,2-dimethyl-6-morpholino-3H-benzofuran-5-yl)pyrazolo[1,5-a]pyrimidine-3-carboxamide] yielded a Ki of 980 nM.
`CC1(C)Cc2cc(NC(=O)c3cnn4cc(C(N)=O)cnc34)c(N3CCOCC3)cc2O1` [Example 491, N^3-(2,2-dimethyl-6-morpholino-2,3-dihydrobenzofuran-5-yl)pyrazolo[1,5-a]pyrimidine-3,6-dicarboxamide] showed a Ki of 1.1 nM.
With `CNC(=O)c1cnc2c(C(=O)Nc3cc4c(cc3N3CCOCC3)C(=O)N(C[C@@H](F)C(C)(C)O)C4)cnn2c1` [Example 492, N3-[2-[(2R)-2-Fluoro-3-hydroxy-3-methyl-butyl]-6-morpholino-1-oxo-isoindolin-5-yl]-N^6-methyl-pyrazolo[1,5-a]pyrimidine-3,6-dicarboxamide] the Ki was 9.1 nM.
`CC1(C)Cc2cc(NC(=O)c3cnn4cc(OC(F)F)cnc34)c(N3CCOCC3)cc2O1` [Example 493, 6-(difluoromethoxy)-N-(2,2-dimethyl-6-morpholino-2,3-dihydrobenzofuran-5-yl)pyrazolo[1,5-a]pyrimidine-3-carboxamide] showed a Ki of 43 nM.
`CC(C)(O)[C@H](F)CN1Cc2cc(NC(=O)c3cnn4cccnc34)c(OCC3CC3)cc2C1=O` [Example 496, N-[6-(Cyclopropylmethoxy)-2-[(2R)-2-fluoro-3-hydroxy-3-methyl-butyl]-1-oxo-isoindolin-5-yl]pyrazolo[1,5-a]pyrimidine-3-carboxamide] was tested, and the Ki was 0.83 nM.
`C[C@H]1CN(C)CC[C@]12Cc1cc(NC(=O)c3cnn4cccnc34)c(N3CCOCC3)cc1O2` [Example 497, N-((2R,3'S)-1′,3′-dimethyl-6-morpholino-3H-spiro[benzofuran-2,4′-piperidin]-5-yl)pyrazolo[1,5-a]pyrimidine-3-carboxamide] was tested, and the Ki was 2.6 nM.
`C[C@@H]1CN(C)CC[C@]12Cc1cc(NC(=O)c3cnn4cccnc34)c(N3CCOCC3)cc1O2` [Example 498, N-((2R,3′R)-1′,3′-dimethyl-6-morpholino-3H-spiro[benzofuran-2,4′-piperidin]-5-yl)pyrazolo[1,5-a]pyrimidine-3-carboxamide] gave a Ki of 29 nM.
`CC1(C)Cc2cc(NC(=O)c3cnn4cccnc34)c(N3CCOCC3)cc2C1=O` [Example 499, N-(2,2-Dimethyl-6-morpholino-1-oxo-2,3-dihydro-1H-inden-5-yl)pyrazolo[1,5-a]pyrimidine-3-carboxamide] gave a Ki of 30 nM.
Compound `CC(C)(O)[C@H](F)CN1Cc2cc(NC(=O)c3cnn4cccnc34)ccc2C1=O` [Example 500, N-[2-[(2R)-2-Fluoro-3-hydroxy-3-methyl-butyl]-1-oxo-isoindolin-5-yl]pyrazolo[1,5-a]pyrimidine-3-carboxamide] has a Ki of 84 nM.
In the case of `O=C(Nc1cc2c(cc1N1CCOCC1)OC1(CCN(CCF)CC1)C2)c1cnn2cccnc12` [Example 501, N-(1′-(2-fluoroethyl)-6-morpholino-3H-spiro[benzofuran-2,4′-piperidin]-5-yl)pyrazolo[1,5-a]pyrimidine-3-carboxamide], the Ki is reported as 6.9 nM.
`CCN1CCC2(CC1)Cc1cc(NC(=O)c3cnn4cccnc34)c(N3CCOCC3)cc1O2` [Example 502, N-(1′-ethyl-6-morpholino-3H-spiro[benzofuran-2,4′-piperidin]-5-yl)pyrazolo[1,5-a]pyrimidine-3-carboxamide] was tested, and the Ki was 5.8 nM.
For `CC1(C)Cc2cc(NC(=O)c3cnn4cccnc34)c(N3CCN(Cc4ncc[nH]4)CC3)cc2O1` [Example 503, N-(6-(4-((1H-imidazol-2-yl)methyl)piperazin-1-yl)-2,2-dimethyl-2,3-dihydrobenzofuran-5-yl)pyrazolo[1,5-a]pyrimidine-3-carboxamide], the Ki was 4 nM.
For `CC1(C)Cc2cc(NC(=O)c3cnn4cccnc34)c(N3CCN(Cc4cnoc4)CC3)cc2O1` [Example 504, N-(6-(4-(isoxazol-4-ylmethyl)piperazin-1-yl)-2,2-dimethyl-2,3-dihydrobenzofuran-5-yl)pyrazolo[1,5-a]pyrimidine-3-carboxamide], the Ki was 3.1 nM.
Compound `CC1(C)Cc2cc(NC(=O)c3cnn4cccnc34)c(N3CCN(Cc4ccn[nH]4)CC3)cc2O1` [Example 505, N-(6-(4-((1H-pyrazol-5-yl)methyl)piperazin-1-yl)-2,2-dimethyl-2,3-dihydrobenzofuran-5-yl)pyrazolo[1,5-a]pyrimidine-3-carboxamide] has a Ki of 5.2 nM.
`Cn1cncc1CN1CCN(c2cc3c(cc2NC(=O)c2cnn4cccnc24)CC(C)(C)O3)CC1` [Example 506, N-(2,2-dimethyl-6-(4-((1-methyl-1H-imidazol-5-yl)methyl)piperazin-1-yl)-2,3-dihydrobenzofuran-5-yl)pyrazolo[1,5-a]pyrimidine-3-carboxamide] showed a Ki of 5.1 nM.
`Cc1nc(CN2CCN(c3cc4c(cc3NC(=O)c3cnn5cccnc35)CC(C)(C)O4)CC2)c[nH]1` [Example 507, N-(2,2-dimethyl-6-(4-((2-methyl-1H-imidazol-4-yl)methyl)piperazin-1-yl)-2,3-dihydrobenzofuran-5-yl)pyrazolo[1,5-a]pyrimidine-3-carboxamide] showed a Ki of 3.2 nM.
For `CC(C)N1CCN(c2cc3c(cc2NC(=O)c2cnn4cccnc24)CC(C)(C)O3)CC1` [Example 508, N-(6-(4-isopropylpiperazin-1-yl)-2,2-dimethyl-2,3-dihydrobenzofuran-5-yl)pyrazolo[1,5-a]pyrimidine-3-carboxamide], the Ki was 43 nM.
For `CC1(C)Cc2cc(NC(=O)c3cnn4cccnc34)c(N3CCN(Cc4c[nH]cn4)CC3)cc2O1` [Example 509, N-(6-(4-((1H-imidazol-4-yl)methyl)piperazin-1-yl)-2,2-dimethyl-2,3-dihydrobenzofuran-5-yl)pyrazolo[1,5-a]pyrimidine-3-carboxamide], the Ki was 1.1 nM.
